US5498695A, “Paranitroaniline peptides” (Pfizer Inc., priority 1994, dated 1996)
Where a SMILES comes first, the peptide text is derived from it. Where no end group is shown, it is not given here. The star is where a group is joined. pNA = O=[N+]([O-])c1ccc(N*)cc1; Cbz = O=C(OCc1ccccc1)*; Boc = CC(C)(C)OC(=O)*

Legend:
[1] = target: T1, interleukin 1β converting enzyme (ICE) (Homo sapiens, UniProt P29466); test: Spectrophotometric hydrolysis of pNA substrates by immobilized ICE (release of pNA at 405 nM); format: biochemical; settings: 25° C.; for Increase In Absorbence Rates (mOD/min), first value: first of two rate values printed; for Increase In Absorbence Rates (mOD/min), first value / Increase In Absorbence Rates (mOD/min), second value: pH 7, 405 nM, condition that separates the two values not given; for Vmax (Rates) mOD/min: pNA substrate 0.01 to 1.5 mM, pH 7; for Increase In Absorbence Rates (mOD/min), second value: second of two rate values
T1 construct: ICE activity was purified from THP-1 cell lysates by three chromatographic steps; endogenous in cells; host or cells: THP-1 (ATCC-TIB 202) human monocyte cell line; Lysate was purified over G25, Q-Sepharose and MonoQ, then captured on protein A agarose beads carrying anti-ICE antibody
T1 sequence (P29466 120-297 limits assumed): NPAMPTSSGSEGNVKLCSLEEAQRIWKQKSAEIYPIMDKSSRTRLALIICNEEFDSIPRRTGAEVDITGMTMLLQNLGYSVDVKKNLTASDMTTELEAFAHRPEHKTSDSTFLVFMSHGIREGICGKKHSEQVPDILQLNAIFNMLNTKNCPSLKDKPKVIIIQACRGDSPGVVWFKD
T1 sequence (P29466 317-404 limits assumed): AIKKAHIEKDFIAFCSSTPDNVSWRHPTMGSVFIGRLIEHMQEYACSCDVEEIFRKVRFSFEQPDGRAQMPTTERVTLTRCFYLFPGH
Experimental: (§1) Other procedures for purification and assaying ICE are disclosed in Black et al., FEBS Letters, 247, 386-390 (1989), and Thornberry et al., Nature, 356, 768-774 (1992). Cell Culture And Lysates.
(§2) Human monocyte cell line, THP-1 (ATCC-TIB 202) was grown in RPMI media 1640 (Gibco BRL Gaithersburg, Md. 20877) with 10% fetal bovine serum, harvested by centrifugation, washed twice in Dulbecco's PBS […] without Ca^++, and resuspended in 10 mM Tris-HCl pH 8 buffer containing 5 mM DTT (dithiothreitol), 1 mM EDTA (ethylene diamine tetraacetic acid), 1 mM PMSF (phenylmethyl sulfonylfluoride), 1 μg/ml pepstatin, and 1 μg/ml leupeptin at 1-3×10^8 cells per ml. Cells were frozen at -70° C. until use and then lysed by thawing. Lysates were cleared by centrifugation at 20,000× g for 1 hour followed by 120,000×g for 1 hour.
(§3) ICE activity was purified from THP-1 cell lysates by three chromatographic steps: (A) Thp-1 cell lysate (1.5L) was desalted by G25 column chromatography (Pharmacia LKB Biotechnology) (B) The protein fraction was then subjected to ion-exchange chromatography on Q-Sepharose Fast Flow (Pharmacia LKB Biotechnology) in buffer A (20 mM Tris pH 7.8 containing 5 mM EDTA, 1 mM PMSF, 1 μg/ml pepstatin, and 1 μg/ml leupeptin). ICE activity was eluted with a gradient of NaCl in buffer A. (C) The active fractions from B were desalted, concentrated and subjected to MonoQ (trademark) (Pharmacia LKB Biotechnology) column chromatography. ICE activity was then eluted in a NaCl gradient. Active ICE fractions from C were pooled and used to bind immunoaffinity beads containing covalently linked antibodies raised against the first […] N-terminal residues of ICE (NH2 -Asp-Pro-Ala-Met-Pro-Thr-Ser-Ser-Val-Lys-Leu-Cys(SEQ ID NO:2)-CONH2).
Immobilization of ICE to immunoaffinity beads was done following standard protocols. Briefly, IgG fractions were covalently linked to protein A beads as described by the manufacturers (Antibody Orientation Kit Protein A Agarose supplied by Affinica (trademark) (Product manufactured by Schleicher and Schuell)). Protein A beads were pelleted by centrifugation and washed with 5 times their volume with Affinica (trademark) supplied "binding buffer". IgG, appropriately diluted in "binding buffer," was then bound to the beads. The beads were then washed and the bound IgG was covalently linked with dimethyl suberimidate. After the reaction was stopped with the "quenching buffer" supplied by Affinica (trademark), the immunoaffinity beads were washed and stored in PBS buffer containing 0.02% NAN3. To bind the immunoaffinity beads with MonoQ purified ICE preparations, the beads were washed in 10 mM Tris HCL buffer pH 7.8 containing 5 mM DDT, 1 mM EDTA-NA, 1 ug/ml peptstatin, 1 ug/ml leupeptin and 10% glycerol ("washing buffer"). After the wash, the beads were mixed with ICE in the presence of 10% DMSO final concentration. The suspension was rotated slowly for 1 hour at room temperature. Subsequently, the beads were thoroughly washed with the "washing buffer" before they were used and resuspended in an equal volume of this buffer in the enzymatic assay.
The enzymatic reaction was carried out at 25° C. in 96 microtiter wells (100 μl final volume) with active enzyme immobilized to anti-ICE antibodies covalently linked to protein A beads as described above. The incubation mixtures for the enzymatic assays contained 0.01 to 1.5 mM of the pNA substrates and was made up in 8.35 mM MES, 4.17 mM Tris, 4.17 mM acetic acid, […] DMSO, 0.8 mM EDTA and 4.17 mM DTT (final concentrations)adjusted to a final pH of 7.
The enzymatic reaction was monitored spectrophotometrically at […]. The increase in absorbance at this wave length resulted from the release of pNA chromophore after hydrolysis by ICE of the peptidic-pNA substrate. The release of the chormophore was linear with reaction time and the rates observed were proportional to ICE and substrate concentration. […]

[2] = target: T1, interleukin 1β converting enzyme (ICE); test: Inhibition of ICE hydrolysis of CBZ-Val-Ala-Asp-pNA; format: biochemical; settings: for Ki: substrate CBZ-Val-Ala-Asp-pNA
Experimental: as §1, §2, §3
Immobilization of ICE to immunoaffinity beads was done following standard protocols. […]
The enzymatic reaction was monitored spectrophotometrically at […]. The increase in absorbance at this wave length resulted from the release of pNA chromophore after hydrolysis by ICE of the peptidic-pNA substrate. […]

| Compound | Increase In Absorbence Rates (mOD/min), first value [1] [mOD/min] | Vmax (Rates) mOD/min [1] [mOD/min] | Increase In Absorbence Rates (mOD/min), second value [1] [mOD/min] | type of inhibition ([2]; hydrolysis of CBZ-Val-Ala-Asp-pNA, affecting Km but not Vmax) | Ki [2] [µM] |
| --- | --- | --- | --- | --- | --- |
| CC(=O)N[C@@H](Cc1ccc(O)cc1)C(=O)N[C@H](C(=O)N[C@@H](C)C(=O)N[C@@H](CC(=O)O)C(=O)Nc1ccc([N+](=O)[O-])cc1)C(C)C [Example 1, Ac-TyrValAlaAsp (SEQ ID NO:1)-p-nitroanilide] | 0.21 | 0.27 | 0.17 |  |  |
| CC(C)[C@H](NC(=O)OC(C)(C)C)C(=O)N[C@@H](C)C(=O)N[C@@H](CC(=O)O)C(=O)Nc1ccc([N+](=O)[O-])cc1 [Example 4, t-BOCValAlaAsp-p-nitroanilide] (Boc-Val-Ala-Asp-pNA) | 0.17 | 0.24 | 0.10 |  |  |
| CC(=O)N[C@H](C(=O)N[C@@H](C)C(=O)N[C@@H](CC(=O)O)C(=O)Nc1ccc([N+](=O)[O-])cc1)C(C)C [Example 5, AcValAlaAsp-p-nitroanilide] (Ac-Val-Ala-Asp-pNA) | 0.15 | 0.25 | 0.08 |  |  |
| CC(C)[C@H](NC(=O)OCc1ccccc1)C(=O)N[C@@H](C)C(=O)N[C@@H](CC(=O)O)C(=O)Nc1ccc([N+](=O)[O-])cc1 [Example 6, CBZValAlaAsp-p-nitroanilide] (Cbz-Val-Ala-Asp-pNA) | 0.18 | 0.21 | 0.16 |  |  |
| Ac-YVHDA-NH2 [p48, Ac-Tyr-Val-His-Asp-Ala(SEQ ID NO:4)-NH2] |  |  |  | competitive inhibitors | 1600 |
| H-NEAYVHDAPVRSLN [p70, H-Asn-Glu-Ala-Tyr-Val-His-Asp-Ala-Pro-Val-Arg-Ser-Leu-Asn] |  |  |  |  | 460 |
